Like-named read-outs stand apart in the source and are kept apart here. Square brackets hold non-standard residues; d marks the D form. Ends that are not written are not given here. NMeL = CN[C@@H](CC(C)C)C(=O)O
Key:
BAL cells = conditions: infected with influenza A/PR/8 and simultaneously treated, one day later
Method: To test the robustness of the EP67 response, mice were treated at the time of influenza infection. Animals were sacrificed one day later for analysis of BAL cells as above.

[1] = test system: anti-influenza antibodies; experiment: ELISA for anti-influenza antibodies on serum; type: in vivo, mice; conditions: influenza-infected, EP67-treated groups
[2] = test system: bronchoalveolar lavage (BAL) cells; experiment: Insufflation of EP67 to the lungs, FACS analysis of BAL cells; type: in vivo, mice
Method: In short, EP67 (3 mg/kg) was delivered directly to the lungs of mice through insufflation (IN). Animals were sacrificed one day later. Lungs were lavaged with PBS to isolate the bronchoalveolar lavage (BAL) cells for staining and FACS analysis.

exMAcs and neutrophils = conditions: aged lung
Source text: Since the aged mouse is considered a strong model for age-related changes in human immunity, the response of aged mice to EP67 insufflation was examined.

CA-MRSA strain USA300 = experiment: Mouse model of MRSA dermonecrotic infection (lesion size, bacterial load); type: in vivo, Staphylococcus aureus
E. coli strain DHSα = experiment: Direct killing of bacteria, OD600 growth curves; type: cell-based
Method: E. coli strain DHSα was grown overnight in Lennox Broth (LB). This culture was diluted to an optical density at […] (OD600) of 0.06. The diluted E. coli was dispensed in 1.5 ml aliquots into separate tubes and 1.5 ml of EP67 ([…] ID NO: 4)), EP54 ([…] NO: 3)), scrambled-EP67 (s-EP67) or scrambled-EP54 in LB was added to obtain a final concentration of 500 μg/ml with the E. coli at an OD600 of 0.03. A culture in LB was also prepared. The cultures were incubated at 37° C. with shaking and the OD600 readings recorded hourly. In order to determine whether the growth media altered the effectiveness of EP67, LB was replaced with an alternative growth media, Tryptic Soy Broth (TSB). To test the efficacy of EP67 on bacteria growing in log phase, overnight cultures of DHSα were grown in either LB or TSB. […] DH5α control cultures (absence of additives) were also prepared. The tubes were further shaken at 37° C. and OD600 readings were taken hourly.

[3] = test system: S. aureus (USA300 LAC strain) biofilm; experiment: Catheter-associated biofilm bacterial burden; type: in vivo; conditions: C57BL/6 mice, Day 3, relative to sEP67 and PBS vehicle
Method: A S. aureus (USA300 LAC strain) biofilm was established on a hollow catheter (1 cm in length) inserted subcutaneously into C57BL/6 mice by introducing 1000 CFUs of S. aureus into the catheter lumen. At the time of infection, one dose of EP67 (200 μg/ml dissolved in PBS) was introduced. At both 24 and 48 h following infection, a series of four injections of EP67 were made; two into each open end of the catheter (20 μl each) and two along the top and bottom at points perpendicular to the middle of the catheter (50 μl each). Samples of the biofilm and surrounding tissue were obtained at Day 3 and assessed for the presence of viable bacteria by standard culture methods.

[4] = test system: IL-6, TNF-α, INF-γ and KC; experiment: Measurement of cytokines in tissue homogenates by ELISA; type: in vivo, mice
Method: Measurement of cytokines. IL-6, TNF-α, INF-γ and KC inflammatory cytokines were measured in tissue homogenates as previously described using ELISA for IL-6, TNF-α, INF-γ (Morgan E L, et al., Vaccine; 28:8275-8279), or according to manufacturer's protocols (BD and R&D Systems) for KC. Samples were run in triplicate.
Proinflammatory cytokines are enhanced by EP67 treatment. The decrease in lesion size observed in EP67-treated animals indicated an enhanced immune activation in these animals. In order to determine the nature of the immune response activated by EP67 treatment, skin lesions were harvested 48 h post-infection and EP67 or sEP67 treatment, and subjected to ELISA to measure proinflammatory cytokines in tissue homogenates.

GBS = experiment: Group B Streptococcus (GBS) meningitis model; type: in vivo; conditions: CD1 mice, 250 μg i.p. at day −1, 0, 1 and 2, 96 hours post-injection
Method: 8-week-old female CD1 mice were treated with 250 μg of EP67 or s-EP67 at day −1, 0, 1 and 2 via i.p. injection. GBS was injected i.p. at 1×10^9 cfu/mouse. Brains and blood were harvested from each mouse 96 hours post-injection. The tissue was homogenized, diluted and plated to determine the cfu/g bacteria.

neutrophils = experiment: Neutrophil chemotaxis and myeloperoxidase assay, histopathology of injection site; type: in vivo, CD1 mice
Method: Neutrophil chemotaxis and myeloperoxidase assay. Neutrophil recruitment at the site of injection by EP67 or sEP67 was examined using an in vivo chemotaxis assay as described previously (van Sorge N M, et al., PLoS One 2008; 3:e2964). Briefly, 250 μg EP67 or sEP67 were injected subcutaneously into the right flank of CD1 mice. The injection was repeated after 24 h. Mice were euthanized 4 h after the second injection and the site of injection excised for histopathologic analysis or determination of myeloperoxidase (MPO) activity as described previously (van Sorge N M, et al., supra). The assay was carried out two times and the samples analyzed in duplicate.
Neutrophil influx is essential for the protective action of EP67. […] Neutrophil recruitment to the site of EP67 injection was further analyzed using an in vivo neutrophil recruitment assay as described previously (van Sorge N M, et al., supra; and Banerjee A, et al., Cell Microbiol; 12:1576-1588). Neutrophil migration was assessed in skin homogenates following injection of EP67 or sEP67 by determining the level of neutrophil enzyme myeloperoxidase (MPO), which serves as an effective indication of neutrophil infiltration (Banerjee A, et al., supra; and Bradley P P, et al., J Invest Dermatol 1982; 78:206-209). This method compares well with other in vivo assays of neutrophil chemotaxis (van Sorge N M, et al., supra).

[5] = test system: S. aureus (Newman strain); experiment: S. aureus in vitro EP67 killing curves; type: cell-based; conditions: dilution series, LB
Method: 150 μl of LB growth medium plus 50 μl of EP67 or s-EP67 were added to individual culture wells resulting in a dilution series of 6 wells per EP67 or s-EP67. A “no EP67” well (control) was included at the end of each series. S. aureus (Newman strain) was allowed to grow to an OD600 of 0.4 and each well of the dilution series was inoculated with 5 μl of the culture. Two wells with no bacterial inoculums were included to serve as controls. Plates were incubated at 37° C. with agitation and the OD600 of each well was measured hourly using a plate reader.

influenza A/A/PR/8 = type: in vivo; conditions: mice
[6] = EP67 3 mg/kg insufflation, one day later
[7] = 48 h post-infection, compared to sEP67

## Tyr-Ser-Phe-Lys-Asp-Met-Pro-MeL-(D-Ala)-Arg (YSFKDMP[NMeL][dA]R; listed as Homo sapiens) [EP67, C-terminal analog of C5a]
BAL cells
  BAL exMAcs and neutrophils: showed a similar increase in BAL exMAcs and neutrophils to the uninfected animals treated with EP67
[1]
  anti-influenza Abs in serum: a high concentration of anti-influenza Abs was found in each group
[2]; [6]
  CD11b+CD11c− cells (GR-1+ neutrophils) in the alveolar space: a large population of CD11b^+CD11c^− cells appeared in the alveolar space
  exudate macrophages (exMac) in BAL cells: appearance of cells bearing the CD11b^+CD11c^+ phenotype of exudate macrophages (exMac)
[2]; mouse, in vivo
  dose dependence of EP67-induced changes in BAL populations: displayed a strict dose-response
[2]; seven days post EP67 administration
  time course of the EP67 response in BAL cells: the neutrophils were largely lost
exMAcs and neutrophils
  exMAcs and neutrophils in the alveolar space: induces a large population of exMAcs and neutrophils into the alveolar space
CA-MRSA strain USA300; CD1 mice, 250 μg s.c., 48 h post-bacterial inoculation, compared to sEP67
  cutaneous lesion size: significantly reduced
CA-MRSA strain USA300; CD1 mice, 5 days post-inoculation, compared to sEP67 or PBS
  bacterial load (CFU) within lesions: significant reduction in bacterial load
CA-MRSA strain USA300; CD88−/− mice, EP67 versus sEP67
  lesion size: no difference in lesion size
CA-MRSA strain USA300; CD-1 mice given isotype IgG control antibody, compared to sEP67
  lesion size: significant reduction in lesion size
CA-MRSA strain USA300; neutropenic CD-1 mice (RB6-8C5 monoclonal antibody), EP67 versus sEP67
  lesion size: no quantifiable difference in lesion size
CA-MRSA strain USA300; wild-type CD88+/+ C57Bl/6 mice, compared to sEP67
  lesion size: significantly smaller lesions
E. coli strain DHSα; 500 μg/ml, start OD600 0.03, LB or TSB
  effect on bacterial growth (OD600): induces direct bacteriostatic/bacteriocidal effects
E. coli strain DHSα; added at OD600 0.2, 500 μg/m, LB or TSB
  effect on log phase growth (OD600): significantly reduce and/or stop log phase growth
[3]
  bacterial burdens within the biofilm and surrounding tissue: significant decrease in bacterial burdens within the biofilm and surrounding tissue
[4]; [7]
  IL-6 level in skin lesion homogenate: Significantly higher levels
  murine KC level in skin lesion homogenate: Significantly higher levels
[4]; during MRSA infection
  INF-γ production: increase
  TNF-α production: increase
GBS
  protection against GBS infection (cfu/g in brain and blood): protects against GBS infections in the central nervous system
neutrophils; 250 μg s.c., no bacteria
  histopathologic analysis of skin tissue: massive influx of inflammatory cells, including neutrophils
neutrophils; skin homogenates, 250 μg s.c. twice, compared to sEP67
  myeloperoxidase (MPO) level, accumulating neutrophils: significantly higher
[5]
  effect on bacterial growth (OD600): dose dependent inhibitory effect
Influenza A/A/PR/8; treated one day after infection
  influenza-induced weight loss: displayed significant protection from influenza-induced weight loss
Influenza A/A/PR/8; treated the day before infection or the day of infection
  influenza-induced weight loss: lost significantly less weight than the non-treated animals

— patent US10945962B2, “Controlled-release peptide compositions and uses thereof” (BOARD OF REGENTS OF THE UNIVERSITY OF NEBRASKA, priority 2011, dated 2021)
